ChEMBL document CHEMBL1201862, “PubChem BioAssay data set” (2004)
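In this assay, cells in 96-well plates receive the compound at five concentrations for 48 hours. Endpoints are linearly interpolated between the surrounding concentrations. At the GI50, growth is halved.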 Active and inactive are the calls of the source. Cut-off read from the data, not from the text of the source: active = GI50 up to about 1.1 µM and inactive = higher.

Legend:
Experiment in all cases: inhibition of tumour cell growth, NCI panel, 48 h
MDA-MB-231 = tested on: MDA-MB-231
Malme-3M = tested on: Malme-3M
IGROV-1 = tested on: IGROV-1
HCT-15 = tested on: HCT-15
SR = tested on: SR
M14 = tested on: M14
OVCAR-5 = tested on: OVCAR-5
DU-145 = tested on: DU-145
MCF7 = tested on: MCF7
DMS-273 = tested on: DMS-273
SK-MEL-5 = tested on: SK-MEL-5
RPMI-8226 = tested on: RPMI-8226
HL-60 = tested on: HL-60
BT-549 = tested on: BT-549
UACC-257 = tested on: UACC-257
PC-3 = tested on: PC-3
SF-268 = tested on: SF-268
A498 = tested on: A498
U-251 = tested on: U-251
Hs-578T = tested on: Hs-578T

SMILES | GI50 (MDA-MB-231) | GI50 (Malme-3M) | GI50 (IGROV-1) | GI50 (HCT-15) [µM] | GI50 (SR) | GI50 (M14) | GI50 (OVCAR-5) | GI50 (DU-145) | GI50 (MCF7) | GI50 (DMS-273) | GI50 (SK-MEL-5) | GI50 (RPMI-8226) | GI50 (HL-60) | GI50 (BT-549) | GI50 (UACC-257) | GI50 (PC-3) | GI50 (SF-268) | GI50 (A498) | GI50 (U-251) | GI50 (Hs-578T)
Cc1c(CCCl)c(Cl)n2c(nc3ccccc32)c1C#N | 1.32 µM (inactive) | 1.26 µM (inactive) | 1.62 µM (inactive) | 0.644 | 0.112 µM (active) | 1.14 µM (inactive) | 1.63 µM (inactive) | 1.69 µM (inactive) | 0.653 µM (active) | 0.457 µM (active) | 0.891 µM (active) | 0.092 µM (active) | 0.107 µM (active) | 2.21 µM (inactive) | 1.44 µM (inactive) | 1.02 µM (active) | 1.49 µM (inactive) | 1.37 µM (inactive) | 0.986 µM (active) | 
COc1ccc(N2C(=O)[C@H]3[C@H]4CC(C(C)(C)C)CC[C@H]4c4c(n(C)c5ccccc45)[C@H]3C2=O)cc1 (stereo partly drawn) | > 100 µM (inactive) | > 100 µM (inactive) | > 100 µM (inactive) | 5.62 | > 100 µM (inactive) | > 100 µM (inactive) | > 10 µM (inactive) | > 100 µM (inactive) | > 46.5 µM (inactive) | > 100 µM (inactive) | 4.65 µM (inactive) | > 100 µM (inactive) | > 90.6 µM (inactive) | > 100 µM (inactive) | > 100 µM (inactive) | > 100 µM (inactive) | > 100 µM (inactive) | > 46.5 µM (inactive) | > 56.2 µM (inactive) | 56.1 µM (inactive)
CCn1c(CSc2nc(-c3ccccc3)c(-c3ccccc3)[nH]2)n[nH]c1=S |  | > 100 µM (inactive) | > 100 µM (inactive) | > 100 | > 100 µM (inactive) | > 100 µM (inactive) | > 100 µM (inactive) |  |  | > 100 µM (inactive) | > 100 µM (inactive) | > 100 µM (inactive) | > 100 µM (inactive) |  | > 100 µM (inactive) |  | > 100 µM (inactive) | > 100 µM (inactive) | > 100 µM (inactive) | 
COc1cc(Br)c(/C=N/N=C(\N)NO)cc1OC |  | 21.1 µM (inactive) | 30.4 µM (inactive) | 36 | 11.8 µM (inactive) | 16.4 µM (inactive) | 21.8 µM (inactive) |  |  | 40.8 µM (inactive) | 6.78 µM (inactive) | > 100 µM (inactive) | 26.9 µM (inactive) |  | 17.3 µM (inactive) |  | 8.87 µM (inactive) | 32.8 µM (inactive) | 23.4 µM (inactive) | 
C=C=C(C(=O)OC)[S+]([O-])c1ccc([N+](=O)[O-])cc1[N+](=O)[O-] (stereo not drawn) |  | > 56.1 µM (inactive) | > 69.8 µM (inactive) | 21.5 | 14.1 µM (inactive) | 30.7 µM (inactive) | > 82.4 µM (inactive) |  |  | 37.4 µM (inactive) | 36.2 µM (inactive) | 21.7 µM (inactive) | 20.7 µM (inactive) |  | 34.9 µM (inactive) |  | 39 µM (inactive) | > 100 µM (inactive) | 38.1 µM (inactive) | 
Cc1cc([N+](=O)[O-])c(S(=O)(=O)c2ccccc2)c([N+](=O)[O-])c1 |  | 13.6 µM (inactive) | 12.6 µM (inactive) | 16 | 4.59 µM (inactive) | 5.93 µM (inactive) | 18.6 µM (inactive) |  |  | 12.9 µM (inactive) | 14.2 µM (inactive) | 14.8 µM (inactive) | 2.82 µM (inactive) |  | 3.52 µM (inactive) |  | 13.2 µM (inactive) | 18.2 µM (inactive) | 13.5 µM (inactive) | 
S=C1OC2C3C4CC5C3C(O1)C1C5C4C21 (stereo not drawn) |  | > 100 µM (inactive) | > 100 µM (inactive) | > 100 | > 100 µM (inactive) | > 100 µM (inactive) | > 100 µM (inactive) |  |  | 89.1 µM (inactive) | > 100 µM (inactive) | > 100 µM (inactive) | > 100 µM (inactive) |  | > 100 µM (inactive) |  | > 100 µM (inactive) | > 100 µM (inactive) | > 100 µM (inactive) | 
COc1ccc(C2=C[C@]3(O)CCCN3C[C@@H]2c2ccc(OC)c(OC)c2)cc1 |  | < 0.0001 µM (active) | < 0.0001 µM (active) | < 0.0001 | < 0.0001 µM (active) | < 0.0001 µM (active) | < 0.0001 µM (active) |  |  | < 0.0001 µM (active) | < 0.0001 µM (active) | > 0.01 µM (active) | < 0.0001 µM (active) |  | < 0.0001 µM (active) |  | < 0.0001 µM (active) | < 0.0001 µM (active) | < 0.0001 µM (active) | 
O=C(O)/C=C\C(=O)c1ccc(Cl)cc1 |  | 18.9 µM (inactive) | > 70.1 µM (inactive) | 20.7 | 24.3 µM (inactive) | 18.5 µM (inactive) | > 100 µM (inactive) |  |  | 20.2 µM (inactive) | > 83.9 µM (inactive) | 25.2 µM (inactive) | 23.5 µM (inactive) |  | 20.1 µM (inactive) |  | 29.4 µM (inactive) | 79.8 µM (inactive) | > 56.9 µM (inactive) | 
N#Cc1c(-c2ccco2)cc(-c2ccc(N)cc2)[nH]c1=O |  | > 100 µM (inactive) | > 100 µM (inactive) | > 100 | > 100 µM (inactive) | > 100 µM (inactive) | > 100 µM (inactive) |  |  | > 100 µM (inactive) | > 100 µM (inactive) | > 100 µM (inactive) | > 100 µM (inactive) |  | > 100 µM (inactive) |  | > 100 µM (inactive) | > 100 µM (inactive) | > 100 µM (inactive) | 
COC(=O)c1c(C)oc2ccc(OC(C)=O)cc12 |  | > 100 µM (inactive) | > 100 µM (inactive) | > 100 | > 100 µM (inactive) | > 100 µM (inactive) | > 100 µM (inactive) |  |  | > 100 µM (inactive) | > 100 µM (inactive) | > 100 µM (inactive) | > 100 µM (inactive) |  | > 100 µM (inactive) |  | 90.8 µM (inactive) | > 100 µM (inactive) | > 100 µM (inactive) | 
CN(C)c1nc(N(C)C)nc(N(C)C)n1 [ALTRETAMINE] | > 150 µM (inactive) | > 147 µM (inactive) | > 123 µM (inactive) | > 122 | > 150 µM (inactive) | > 150 µM (inactive) | > 147 µM (inactive) | > 150 µM (inactive) | > 150 µM (inactive) | > 140 µM (inactive) | 136 µM (inactive) | > 143 µM (inactive) | > 142 µM (inactive) | > 150 µM (inactive) | > 150 µM (inactive) | > 150 µM (inactive) | > 150 µM (inactive) | > 148 µM (inactive) | > 150 µM (inactive) | > 150 µM (inactive)
COc1ccc(OC)c(NC(=O)CCC/C(CC(=O)c2ccc(O)c(OC)c2)=N\NC(=O)C[N+](C)(C)C)c1 |  | > 100 µM (inactive) | > 100 µM (inactive) | > 100 | > 100 µM (inactive) | > 100 µM (inactive) | > 100 µM (inactive) |  |  | > 100 µM (inactive) | > 100 µM (inactive) | 79.3 µM (inactive) | > 100 µM (inactive) |  | > 100 µM (inactive) |  | > 100 µM (inactive) | > 100 µM (inactive) | > 100 µM (inactive) | 
CC1(Cl)CC2OC3(Br)C=CC(C)(O)C2(CC1Br)C3(C)C (stereo not drawn) |  | > 100 µM (inactive) | > 100 µM (inactive) | > 100 | 23.6 µM (inactive) | > 100 µM (inactive) | > 100 µM (inactive) |  |  | > 100 µM (inactive) | > 100 µM (inactive) | > 100 µM (inactive) | 51.1 µM (inactive) |  | 97.5 µM (inactive) |  | > 100 µM (inactive) | > 100 µM (inactive) | > 100 µM (inactive) | 
